Data set [1] deals with NFPAs in MENX (homozygous mutant) rats. The data set can be described thus: Efficacy against endogenous NFPAs in MENX rat model. Type of data set: in vivo. Particulars: for number of Ki67-positive cells per 100.000 μm^2: end of treatment. On the procedure:
MRI was performed every 14 days and the tumor volume was normalized against the volume at day 0. Male and female rat tumors are shown separately. Data presented are the mean±SEM. #, not significant; *, p-value <0.05; **, p-value <0.001.
(A, B) Number of Ki67-positive cells per 100.000 μm2 in tumors of rats belonging to the 2 groups (ITF2984-treated and control) and both sexes. Shown is the mean±SEM. *, p-value <0.05; **, p-value <0.001. […]
At the end of the treatment, pituitary tissues were collected for ex vivo analyses. […] The difference in the number of Ki67-positive cells between placebo-and ITF2984-treated female rats is significant (p=0.031). […]

Data set [2] deals with NT-3 cell line spheroids. The data set can be described thus: Cytotoxic activity on NT-3 cell line spheroids. Type of data set: cell-based, human. Here is the method:
NT-3 well-differentiated pancreatic neuroendocrine (PanNET) cell line (32) is an in-vitro model for pancreatic tumours.
Said cells were cultured in RPMI 1640 Medium GlutaMAX™ with 10% FBS, 1% Penicillin/Streptomycin, 20ng/ml EGF (AF-100-15, Peprotech), 10 ng/ml FGF (100-18B, Peprotech).
3D spheroids were generated by seeding 2000 cells/well in a 96-well ULA plate (Corning). Four replicates for each condition were seeded.
The spheroid formation required 4 days before starting the treatment.
The treatment was repeated every 3 days by replacing 50% of the medium (to avoid spheroid removal) with new medium containing 2× desired drug concentration.
Spheroid morphology was monitored every day during the treatment and pictures were taken on day 0, 4, 7, 11, 14, 18. Day 0 corresponds to the first day of treatment. Pictures were taken from the same well every time point.

The target of data set [3] is SSTR3-tGFP (Homo sapiens, UniProt P32745). As to the kind of experiment: Internalization of SSTR3 in U2OS transfected cells. Also on record: expressed in transfected cells; host or cells: U2OS. It counts as cell-based. From the text: HEK293 cells transfected with human SSTRs, and U20S cells transfected with human GFP-tagged receptors (SSTR2-tGFP, SSTR3-tGFP, SSTR5-tGFP).
Chain of SSTR3-tGFP (P32745 whole entry): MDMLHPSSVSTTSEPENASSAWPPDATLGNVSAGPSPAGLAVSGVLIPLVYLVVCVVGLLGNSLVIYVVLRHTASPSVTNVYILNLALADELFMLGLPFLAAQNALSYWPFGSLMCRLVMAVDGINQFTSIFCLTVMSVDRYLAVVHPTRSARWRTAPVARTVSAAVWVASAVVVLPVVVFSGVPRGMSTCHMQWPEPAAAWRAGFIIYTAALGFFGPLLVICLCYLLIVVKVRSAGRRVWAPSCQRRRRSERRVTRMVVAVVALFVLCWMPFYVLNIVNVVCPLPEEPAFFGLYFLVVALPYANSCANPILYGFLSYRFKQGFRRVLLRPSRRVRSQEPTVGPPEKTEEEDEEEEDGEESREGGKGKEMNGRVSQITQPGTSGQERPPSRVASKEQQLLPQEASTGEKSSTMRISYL

With `COc1cc2cccc(OC)c2cc1C[C@H]1NC(=O)[C@H](Cc2ccc(O)cc2)NC(=O)[C@@H]2C[C@@H](OC(=O)NCCN)CN2C(=O)[C@H](Cc2ccccc2)NC(=O)[C@H](Cc2ccc(OCc3ccccc3)cc2)NC(=O)[C@H](CCCCN)NC1=O` [ITF2984, (3S,6R,9S,12S,15S,19R,20aS)-9-(4-aminobutyl)-15-benzyl-12-(4-(benzyloxy)benzyl)-6-((3,8-dimethoxynaphthalen-2-yl)methyl)-3-(4-hydroxybenzyl)-1,4,7,10,13,16-hexaoxoicosahydropyrrolo[1,2-a][1,4,7,10,13,16]hexaazacyclooctadecin-19-yl (2-aminoethyl)carbamate], the signs of discomfort entry in data set [1] (end of the treatment) is listed as “no signs of discomfort”. In data set [1] (female rats, 56 days, 12.5 mg/kg every 14 days), the “tumor volume (MRI)” value is “only a slight increase in tumor volume”. Moreover, the “number of Ki67-positive cells per 100.000 μm^2” value in data set [1] (female rats) was 134. In addition, in data set [1] (male rats), the “change in Ki67-positive cells versus placebo” value is reported as −33.5% and the “number of Ki67-positive cells per 100.000 μm^2” value amounted to 250. Further, the “spheroid morphology at the highest concentration” value in data set [2] (2.56 μM, 18 days) was “completed destroyed”. Besides, in data set [2] (starting from day 7), the “concentration reducing the spheroid volume” value is given as not below 640 nM. In data set [3] (1 μM), the “Mean of internalized fluorescence, SSTR3” value worked out at 61.1 AU and the “rank as SSTR3-tGFP internalization inducer” value is “most potent inducer of receptor internalization”. Also, in data set [3] (10 μM), the “Mean of internalized fluorescence, SSTR3” value was 62.5 AU.

Values taken from US20250057913A1, “USE OF SOMATOSTATIN AGONIST IN THE TREATMENT OF SSTR3 EXPRESSING TUMORS” (ITALFARMACO SPA, priority 2021, published 2025).
